From US20110033393A1, “Hydrazone Compounds and Their Use” (priority 2009, published 2011)

Molecular target: T1, human TRPM5 ion channel (Homo sapiens, UniProt Q9NZQ8)
T1 sequence (Q9NZQ8 1-1165): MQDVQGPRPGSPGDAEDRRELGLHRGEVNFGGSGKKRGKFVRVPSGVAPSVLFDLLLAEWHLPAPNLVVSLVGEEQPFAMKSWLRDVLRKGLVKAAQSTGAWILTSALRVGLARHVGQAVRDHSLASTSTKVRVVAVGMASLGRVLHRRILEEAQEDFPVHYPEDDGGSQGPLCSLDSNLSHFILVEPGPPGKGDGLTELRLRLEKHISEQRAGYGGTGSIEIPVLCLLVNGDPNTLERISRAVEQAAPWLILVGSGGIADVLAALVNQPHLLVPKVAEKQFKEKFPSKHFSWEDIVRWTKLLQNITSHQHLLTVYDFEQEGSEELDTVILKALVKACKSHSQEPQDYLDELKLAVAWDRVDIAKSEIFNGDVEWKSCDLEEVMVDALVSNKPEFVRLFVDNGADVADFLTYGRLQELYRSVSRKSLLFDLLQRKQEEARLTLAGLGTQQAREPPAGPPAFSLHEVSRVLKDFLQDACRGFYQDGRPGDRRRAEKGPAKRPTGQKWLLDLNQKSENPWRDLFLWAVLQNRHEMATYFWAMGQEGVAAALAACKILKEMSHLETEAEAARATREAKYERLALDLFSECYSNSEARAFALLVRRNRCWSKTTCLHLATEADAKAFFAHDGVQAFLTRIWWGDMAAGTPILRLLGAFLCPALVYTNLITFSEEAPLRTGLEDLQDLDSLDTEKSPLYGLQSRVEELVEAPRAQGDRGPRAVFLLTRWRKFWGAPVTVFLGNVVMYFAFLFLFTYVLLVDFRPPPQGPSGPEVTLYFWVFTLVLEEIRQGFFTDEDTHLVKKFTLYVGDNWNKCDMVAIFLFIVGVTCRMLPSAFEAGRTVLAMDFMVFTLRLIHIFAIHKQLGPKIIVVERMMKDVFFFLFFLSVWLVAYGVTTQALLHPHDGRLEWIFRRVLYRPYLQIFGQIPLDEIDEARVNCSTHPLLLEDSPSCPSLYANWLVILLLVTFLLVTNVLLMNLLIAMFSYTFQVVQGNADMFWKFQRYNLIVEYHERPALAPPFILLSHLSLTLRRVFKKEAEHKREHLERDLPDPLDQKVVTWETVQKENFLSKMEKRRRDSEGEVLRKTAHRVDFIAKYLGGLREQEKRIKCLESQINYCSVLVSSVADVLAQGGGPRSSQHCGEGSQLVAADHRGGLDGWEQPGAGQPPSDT
Assay: FLIPR-based assay for membrane potential and calcium mobilization (TRPM5 inhibiting activity)
Format: cell-based
Settings: live cells, 30° C., read-out: hTrpM5 IC50
Procedure: The activity of compounds of the present invention on human TRPM5 ion channel was measured using the FLIPR-based (fluorescent imaging plate reader) assay for membrane potential and calcium mobilization described in U.S. Patent Application Publication No. 2008/0249189 A1 in live cells, wherein the assay is performed at 30° C. Determinations of affinity and efficacy were derived from measurements of TRPM5 activity over a range of compound concentrations. The concentration range was achieved by 10 serial dilutions (either 2-fold or 3-fold decrements) from a maximum concentration of no greater that 100 μM. Curver fitting was performed on the resulting data to yield concentration-effect functions, from which the half-maximal inhibitory concentration (IC50) was derived for all the tested compounds. The IC50 values were considered to be accurate reflections of affinity between the compounds and TRPM5.
Representative compounds of the present invention have been tested in the FLIPR assay for TRPM5 inhibiting activity, which is described in detail above.

IC50 [nM] | SMILES
120 | COc1ccnc2ccc(/C=N/NC(=O)CCn3cc(C)c4ccccc43)cc12 [Example 63, N′-((4-methoxyquinolin-6-yl)methylene)-3-(3-methyl-1H-indol-1-yl)propanehydrazide]
5 | Cc1cc(/C=N/NC(=O)CCn2cc(C)c3c(C)cccc32)cc2cccnc12 [Example 64, 3-(3,4-dimethyl-1H-indol-1-yl)-N′-((8-methylquinolin-6-yl)-methylene)propanehydrazide]
200 | COc1ccc(/C=N/NC(=O)NCCc2ccccc2)cc1OC [Example 65, 2-(3,4-dimethoxybenzylidene)-N-phenethylhydrazinecarboxamide]
40 | COc1ccc(/C=N/NC(=O)CSc2cccc(Cl)c2)cc1OC [Example 66, 2-(3-chlorophenylthio)-N′-(3,4-dimethoxybenzylidene)acetohydrazide]
> 30000 | COc1ccc(/C=N/NC(=O)CSc2cccc(CO)c2)cc1OC [Example 67, N′-(3,4-dimethoxybenzylidene)-2-(3-(hydroxymethyl)phenylthio)-acetohydrazide]
> 30000 | Cc1cn(CCC(=O)N/N=C/c2ccc3cccnc3c2)c2ccccc12 [Example 68, 3-(3-methyl-1H-indol-1-yl)-N′-(quinolin-7-ylmethylene)-propanehydrazide]
> 30000 | Cc1ccc2cc(/C=N/NC(=O)CCn3cc(C)c4ccccc43)ccc2n1 [Example 69, 3-(3-methyl-1H-indol-1-yl)-N′-((2-methylquinolin-6-yl)methylene)-propanehydrazide]
